By Kd is commonly meant the free concentration of one partner at which half of the binding sites on the other are occupied at equilibrium, for simple one-to-one binding. Higher therefore signals a looser complex.

The values below come from paper PMC8227659, “The Metarhizium anisopliae Toxin, Destruxin A, Interacts with the SEC23A and TEME214 Proteins of Bombyx mori” (Journal of Fungi, 2021).

This test concerns the target T1, BmTMEM214 (BmTEME214) (Bombyx mori, UniProt A0A8R1WLS5).
T1 construct: immobilised on biosensor
T1 sequence (A0A8R1WLS5 1-663): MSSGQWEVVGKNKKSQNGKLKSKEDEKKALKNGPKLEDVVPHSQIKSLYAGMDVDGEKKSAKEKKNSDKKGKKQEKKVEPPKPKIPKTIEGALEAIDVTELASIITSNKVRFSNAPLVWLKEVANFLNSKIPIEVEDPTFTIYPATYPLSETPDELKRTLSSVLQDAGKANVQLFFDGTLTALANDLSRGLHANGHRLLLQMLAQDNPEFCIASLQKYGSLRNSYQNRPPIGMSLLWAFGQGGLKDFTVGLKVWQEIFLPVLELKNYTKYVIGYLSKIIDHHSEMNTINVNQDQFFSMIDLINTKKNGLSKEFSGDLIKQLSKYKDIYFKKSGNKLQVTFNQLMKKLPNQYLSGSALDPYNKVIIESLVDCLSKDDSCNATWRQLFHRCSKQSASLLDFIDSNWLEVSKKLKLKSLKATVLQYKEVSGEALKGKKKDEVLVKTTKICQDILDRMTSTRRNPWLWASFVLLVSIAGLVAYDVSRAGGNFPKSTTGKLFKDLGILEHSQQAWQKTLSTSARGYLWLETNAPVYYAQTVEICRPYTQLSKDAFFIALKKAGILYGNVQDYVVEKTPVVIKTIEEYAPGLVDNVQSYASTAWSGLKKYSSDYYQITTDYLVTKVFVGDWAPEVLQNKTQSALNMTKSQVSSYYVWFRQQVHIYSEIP
Nature of the test: bio-layer interferometry, immobilised protein. Type of test: binding. An excerpt: bio-layer interferometry, immobilised protein on BmTMEM214 (BmTEME214)
Background: Biolayer interferometry detects binding as a change in optical thickness at a sensor tip.

Where a SMILES comes first, the peptide text is derived from it. [ ]: non-standard residue; d: D form. dLac(3-vinyl) = C=CC[C@@H](O)C(=O)O; NMeV = CN[C@H](C(=O)O)C(C)C; NMeA = CN[C@@H](C)C(=O)O; βAla = NCCC(=O)O

As for `C=CC[C@H]1OC(=O)CCNC(=O)[C@H](C)N(C)C(=O)[C@H](C(C)C)N(C)C(=O)[C@H]([C@@H](C)CC)NC(=O)[C@@H]2CCCN2C1=O` [DA, Destruxin A] (cyclo(I[NMeV][NMeA][βAla][dLac(3-vinyl)]P)), the affinity, expressed as Kd, was 286 nM.
